Marks after values point to notes of the source that are not given here.
Key:
p53 Y220C [1] = molecular target: T1, p53 Y220C (Homo sapiens, UniProt P04637, P309S/R273H/Y220C); assay: DNA binding test (HTRF): binding of P53Y220C protein to DNA; assay type: biochemical; conditions: HTRF, activation of p53 Y220C (aa 94-312) binding to biotin DNA
T1 construct: a truncated mutant containing only amino acids 94-312 of p53; made in house; host or cells: E. coli

p53 Y220C [2] = molecular target: T2, p53 Y220C (Homo sapiens, UniProt P04637, Y220C); assay: as above; assay type: biochemical; conditions: multiple ratio of EC50 of the compound to the reference compound, DNA binding test
T2 construct: a truncated mutant containing only amino acids 94-312 of p53; made in house; host or cells: E. coli

BxPC-3 cells = assay: BxPC-3 cell proliferation test (CTG); assay type: cell-based; conditions: Homo sapiens, 144 h, 6 days
Method: To detect the inhibitory effects of the aforementioned compounds on the proliferation ability of BxPC-3 cells, 125 BxPC-3 cells (ATCC®CRL-1687) were seeded into a 384-well plate (Corning 3765), 35 μL per well, and placed in a constant temperature incubator at 37° C. and 5% CO2 overnight. Then, 40 nL of the compound was added to the 384-well plate using an Echo 655 Liquid Handler, with a maximum final concentration of 10 μM, 1:3 serial dilution, and in a total of 10 doses. Incubation was performed at 37° C., 5% CO2 for 6 days. The plate was taken out from the incubator and equilibrated at room temperature for 10 minutes. 20 μL of CTG (Promage G7572) was added to each well of the plate according to the platemap. The plate was centrifuged at 1000 rpm for 1 minute. The lysis of cells was induced by mixing on a shaker for 2 minutes. The plate was centrifuged at 1000 rpm for 1 minute. Incubation was performed at room temperature for 10 minutes to stabilize luminescence signals. Luminescence values were recorded by Envision (PerkinElmer 2105-0020). GraphPad 9.0 was used to fit the inhibition rate and compound concentration into a nonlinear regression curve (dose response-variable slope) to calculate GI50, inhibition rate={1−(A−B)/(C−B)}*100%, A=signal value of compound; B=average signal of blank control; C=average signal of negative control (wherein the negative control was 0.1% DMSO).

NUGC-3 cells = assay: NUGC-3 cell proliferation assay (CTG); assay type: cell-based, human; conditions: for GI50: Homo sapiens, NUGC-3, 144 h, 6 days, CTG; for Compound GI50 (nM)/Reference compound GI50 (nM): multiple ratio of GI50 of the compound to the reference compound
Summary of the method: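 GI50 derived by variable-slope regression of percent inhibition (normalized to blank and 0.1% DMSO controls) from CTG luminescence. Compound was given as 10 threefold dilutions, highest final 10 μM, to overnight-seeded NUGC-3 cells (250/well) for 6 days, 37° C, 5% CO2.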

[3] = Caco-2 cell permeability test; assay type: in vitro ADME; conditions: human, pH 7.4, Caco-2, 10 μM; for Papp A→B at 120 min, 10 μM: A to B; for Papp B→A at 120 min, 10 μM: B to A
Method: Caco-2 cells (ATCC, Cat. No. HTB-37) were inoculated to a 96-well plate (Corning HTS Transwell, Cat. No. 3391) at 1.25×10^5/cm2, and the culture medium (DMEM+10% FBS+1% Penicillin-Streptomycin Liquid (100×)+1% NEAA) was replaced every 3 to 4 days. The plate was placed in an incubator at 37° C. with 5% CO2 until a confluent cell monolayer was formed after 21 to 28 days. Before the transport experiment, the culture medium was removed from the cell culture plate, and the plate was washed twice with pre-warmed HBSS buffer (10 mM HEPES, pH 7.4), and 100 μL of HBSS buffer was added to each well. After incubation at 37° C. for 30 minutes, the TEER value was measured using a cell resistance meter (Millicell-ERS2) to confirm the integrity and density of the monolayer cells. The HBSS buffer was discarded, the upper plate containing the cell monolayer membrane was transferred to the corresponding receiving plate, 10 mM test compound stock solution was diluted to a concentration of 10 μM with HBSS transport buffer containing 0.5% BSA, and it was added to the apical side (A side) and basolateral side (B side), respectively. Incubation was carried out for 120 min at 37° C., 5% CO2, and 95% relative humidity, and the permeation of the test compound from A side to B side or from B side to A side and the efflux rate of the compound were determined. The test compound and the reference compound were quantified by LC-MS/MS analysis based on the peak area ratio of analyte/internal standard. The apparent permeability coefficient Papp (cm/s) was calculated using the following formula:
[formula] • wherein, dCr/dt represented the functional relation between cumulative concentration of compound in receptor compartment and time; V represented the volume of solution in receptor compartment (0.1 mL at apical side, and 0.25 mL at basolateral side); A represented the transport surface area, i.e., the monolayer cell area was 0.0804 cm^2; CO represented the initial concentration of compound in donor compartment.
The efflux ratio was calculated using the following formula: […]
The percent recovery was calculated using the following formula:
[formula] [formula] • wherein, Vd represented the volume of donor compartment (0.1 mL on the apical side and 0.25 mL on the basolateral side); C and Cr represented the final concentrations of the transported compound in the donor and receptor compartment, respectively; Cc represented the compound concentration in cell lysate; Vc represented the volume of insert well (which was 0.1 mL in this experiment).

EC50 (p53 Y220C [1])	GI50 (BxPC-3 cells)	efflux ratio at 120 min, 10 μM [3]	Papp A→B at 120 min, 10 μM [3]	Papp B→A at 120 min, 10 μM [3]	SMILES	Compound EC50 (nM)/Reference compound EC50 (nM) (p53 Y220C [2])	GI50 (NUGC-3 cells)	Compound GI50 (nM)/Reference compound GI50 (nM) (NUGC-3 cells)
0.5 to 1 µM	1 to 5 µM				CNC(=O)c1ccc(NCC#Cc2nc3c(NC4CCN(C)CC4)nccn3c2CC(F)(F)F)c(OC)c1 [Compound 1]	C (C: EC50 of the compound≥3*EC50 of the reference compound)	1 to 5 µM	C (C: GI50 of the compound ≥ 3 * GI50 of the reference compound)
0.1 to 0.5 µM	< 1 µM				COc1cc(S(C)(=O)=O)ccc1NCC#Cc1nc2c(N[C@@H]3CCN(C)C[C@@H]3F)cccn2c1CC(F)(F)F [Compound 3]	A (A: EC50 of the compound≤EC50 of the reference compound)	< 1 µM	B (B: GI50 of the reference compound < GI50 of the compound ≤ 3.0 * GI50 of the reference compound)
0.1 to 0.5 µM	< 1 µM				COc1cc(S(C)(=O)=O)ccc1NCC#Cc1nc2c(NC3CCN(C)CC3)cccn2c1CC(F)(F)F [Compound 4]	A (A: EC50 of the compound≤EC50 of the reference compound)	1 to 5 µM	B (B: GI50 of the reference compound < GI50 of the compound ≤ 3.0 * GI50 of the reference compound)
0.5 to 1 µM	1 to 5 µM				CNC(=O)c1ccc(NCC#Cc2nc3c(NC4CCOCC4)cccn3c2CC(F)(F)F)c(OC)c1 [Compound 8]	C (C: EC50 of the compound≥3*EC50 of the reference compound)	1 to 5 µM	C (C: GI50 of the compound ≥ 3 * GI50 of the reference compound)
0.1 to 0.5 µM	< 1 µM				CNC(=O)c1ccc(NCC#Cc2nc3c(N[C@H]4CC[C@H](N5CC6(COC6)C5)CC4)cccn3c2CC(F)(F)F)c(OC)c1 [Compound 9]	B (B: EC50 of the reference compound<EC50 of the compound≤3.0*EC50 of the reference compound)	< 1 µM	B (B: GI50 of the reference compound < GI50 of the compound ≤ 3.0 * GI50 of the reference compound)
0.1 to 0.5 µM	1 to 5 µM				CNC(=O)c1ccc(NCC#Cc2nc3c(NC4CCS(=O)(=O)CC4)cccn3c2CC(F)(F)F)c(OC)c1 [Compound 10]	C (C: EC50 of the compound≥3*EC50 of the reference compound)	1 to 5 µM	C (C: GI50 of the compound ≥ 3 * GI50 of the reference compound)
		1.72	2.16 ×10⁻⁶ cm/s	3.72 ×10⁻⁶ cm/s	CNC(=O)c1ccc(NCC#Cc2nc3c(NC4CC[C@@H](N5CC6(CCC6)C5)C[C@@H]4F)cccn3c2CC(F)(F)F)c(OC)c1 (some centres unmarked) [Compound 42]	B (B: EC50 of the reference compound<EC50 of the compound≤3.0*EC50 of the reference compound)	< 1 µM	B (B: GI50 of the reference compound < GI50 of the compound ≤ 3.0 * GI50 of the reference compound)
< 0.1 µM		1.79	3.54 ×10⁻⁶ cm/s	6.34 ×10⁻⁶ cm/s	CNC(=O)c1ccc(NCC#Cc2nc3c(NC4CCC(N5CCOCC5)C[C@@H]4F)cccn3c2CC(F)(F)F)c(OC)c1 (some centres unmarked) [Compound 44]	B (B: EC50 of the reference compound<EC50 of the compound≤3.0*EC50 of the reference compound)		C (C: GI50 of the compound ≥ 3 * GI50 of the reference compound)
		1.52	3.97 ×10⁻⁶ cm/s	6.04 ×10⁻⁶ cm/s	COc1cc(C(=O)N(C)C)ccc1NCC#Cc1nc2c(NC3CC[C@@H](N4CC5(COC5)C4)C[C@@H]3F)cccn2c1CC(F)(F)F (some centres unmarked) [Compound 47]	B (B: EC50 of the reference compound<EC50 of the compound≤3.0*EC50 of the reference compound)		C (C: GI50 of the compound ≥ 3 * GI50 of the reference compound)
	< 1 µM	1.84	3.7 ×10⁻⁶ cm/s	6.82 ×10⁻⁶ cm/s	CNC(=O)c1ccc(NCC#Cc2nc3c(NC4CC[C@@H](N5CC6(COC6)C5)C[C@@H]4F)cccn3c2CC(F)(F)F)c(OC2CC2)c1 (some centres unmarked) [Compound 57]	B (B: EC50 of the reference compound<EC50 of the compound≤3.0*EC50 of the reference compound)		B (B: GI50 of the reference compound < GI50 of the compound ≤ 3.0 * GI50 of the reference compound)

Reference: US20260132128A1, “COMPOUND FOR RECOVERING P53 MUTATION FUNCTION AND USE THEREOF” (SHENZHEN ZHONGGE BIOLOGICAL TECHNOLOGY CO., LTD., priority 2022, published 2026)
